The results in this text go back to article PMC7827406, “Structure–Activity Relationship (SAR) Study of Spautin-1 to Entail the Discovery of Novel NEK4 Inhibitors” (International Journal of Molecular Sciences, 2021).

Like-named read-outs stand apart in the source and are kept apart here.

Assay in all cases: biochemical
Design in all cases: Eurofins KinaseProfiler full panel at Km ATP, residual kinase activity (%) relative to DMSO

One assay addresses T1, LOK(h) (Homo sapiens, UniProt O94804).
T1 construct: gene STK10
In outline:
(§1)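 Two 10 µM single-concentration screens were run: a competition-binding screen, in which DNA-tagged kinase bound to immobilized ligands was quantified by qPCR, and a radiometric activity panel at Km ATP. Each is expressed as residual kinase activity (%).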

The target in a further assay is T2, MuSK(h) (Homo sapiens, UniProt O15146).
T2 sequence (O15146 1-869): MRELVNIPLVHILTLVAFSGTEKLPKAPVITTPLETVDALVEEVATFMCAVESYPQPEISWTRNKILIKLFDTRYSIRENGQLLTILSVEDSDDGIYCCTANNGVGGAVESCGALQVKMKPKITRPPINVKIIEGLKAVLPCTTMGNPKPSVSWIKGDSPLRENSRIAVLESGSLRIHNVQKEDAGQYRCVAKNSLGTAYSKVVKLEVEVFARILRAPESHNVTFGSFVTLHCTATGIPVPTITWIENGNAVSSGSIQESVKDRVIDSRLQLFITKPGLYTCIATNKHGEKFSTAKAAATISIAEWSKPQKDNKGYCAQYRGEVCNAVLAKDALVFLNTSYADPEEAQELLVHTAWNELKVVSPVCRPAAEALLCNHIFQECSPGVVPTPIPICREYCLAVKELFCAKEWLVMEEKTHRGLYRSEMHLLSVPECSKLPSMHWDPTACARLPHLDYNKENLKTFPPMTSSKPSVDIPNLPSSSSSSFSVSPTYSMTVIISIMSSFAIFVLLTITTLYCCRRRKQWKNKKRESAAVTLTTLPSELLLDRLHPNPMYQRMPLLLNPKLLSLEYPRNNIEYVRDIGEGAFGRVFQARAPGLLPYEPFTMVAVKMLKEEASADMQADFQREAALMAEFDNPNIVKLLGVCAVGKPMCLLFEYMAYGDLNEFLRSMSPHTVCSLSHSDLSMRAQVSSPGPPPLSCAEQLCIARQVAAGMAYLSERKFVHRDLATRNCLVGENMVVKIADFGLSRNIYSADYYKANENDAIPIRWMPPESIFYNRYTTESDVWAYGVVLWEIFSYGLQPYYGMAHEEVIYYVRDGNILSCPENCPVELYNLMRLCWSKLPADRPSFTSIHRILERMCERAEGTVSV
In outline:
as §1

The target of a further assay is KDR(h) (Homo sapiens, UniProt P35968). A digest of the protocol:
as §1

The target of a further assay is T3, DCAMKL3(h) (Homo sapiens, UniProt Q9C098).
T3 construct: gene DCLK3
T3 sequence (Q9C098 1-648): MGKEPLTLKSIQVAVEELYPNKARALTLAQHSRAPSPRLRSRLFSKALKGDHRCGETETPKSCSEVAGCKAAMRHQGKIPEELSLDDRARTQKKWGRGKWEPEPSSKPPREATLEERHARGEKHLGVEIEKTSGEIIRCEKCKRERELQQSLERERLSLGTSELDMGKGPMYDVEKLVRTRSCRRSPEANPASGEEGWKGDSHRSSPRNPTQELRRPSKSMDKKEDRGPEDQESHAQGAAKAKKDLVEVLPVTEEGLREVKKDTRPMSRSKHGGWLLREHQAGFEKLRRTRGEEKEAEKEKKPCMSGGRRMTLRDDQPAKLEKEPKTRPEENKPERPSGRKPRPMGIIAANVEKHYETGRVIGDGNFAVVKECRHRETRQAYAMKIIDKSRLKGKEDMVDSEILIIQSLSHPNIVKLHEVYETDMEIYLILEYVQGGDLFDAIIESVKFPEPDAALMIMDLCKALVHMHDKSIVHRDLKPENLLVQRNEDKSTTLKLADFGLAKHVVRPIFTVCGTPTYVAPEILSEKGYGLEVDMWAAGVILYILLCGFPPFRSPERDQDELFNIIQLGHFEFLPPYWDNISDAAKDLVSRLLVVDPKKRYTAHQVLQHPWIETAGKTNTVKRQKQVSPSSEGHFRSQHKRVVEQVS
A digest of the protocol: as §1

In another assay the target is T4, PKG1β(h) (Homo sapiens, UniProt Q13976).
T4 construct: gene PRKG1; isoform 1beta
T4 sequence (Q13976 1-671): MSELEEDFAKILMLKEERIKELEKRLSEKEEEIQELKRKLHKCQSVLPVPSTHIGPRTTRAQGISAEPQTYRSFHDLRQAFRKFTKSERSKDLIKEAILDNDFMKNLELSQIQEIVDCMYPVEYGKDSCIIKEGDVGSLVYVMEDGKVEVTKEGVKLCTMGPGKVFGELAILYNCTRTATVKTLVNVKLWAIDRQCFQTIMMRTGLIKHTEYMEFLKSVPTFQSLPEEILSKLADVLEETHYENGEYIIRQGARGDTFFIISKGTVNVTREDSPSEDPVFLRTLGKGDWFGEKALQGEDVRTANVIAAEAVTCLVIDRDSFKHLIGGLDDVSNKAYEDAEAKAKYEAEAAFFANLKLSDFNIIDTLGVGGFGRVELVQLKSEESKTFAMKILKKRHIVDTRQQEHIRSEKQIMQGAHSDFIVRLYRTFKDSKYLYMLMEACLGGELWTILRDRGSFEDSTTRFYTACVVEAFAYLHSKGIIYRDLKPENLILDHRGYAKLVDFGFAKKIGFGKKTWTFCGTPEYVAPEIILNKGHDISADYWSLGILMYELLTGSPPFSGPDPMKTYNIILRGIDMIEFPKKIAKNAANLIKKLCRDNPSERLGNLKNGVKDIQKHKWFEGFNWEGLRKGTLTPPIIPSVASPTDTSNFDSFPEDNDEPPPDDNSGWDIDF
In outline: as §1

Where [1] appears, read: read-out: Residual activity (%) 5at.
[2] abbreviates: read-out: Residual activity (%) 5ay.
Setting [3] is: read-out: Residual activity (%) 5as.
[4] abbreviates: read-out: Residual activity (%) Spautin-1 5aa.

KDR(h), sequence (P35968 whole entry): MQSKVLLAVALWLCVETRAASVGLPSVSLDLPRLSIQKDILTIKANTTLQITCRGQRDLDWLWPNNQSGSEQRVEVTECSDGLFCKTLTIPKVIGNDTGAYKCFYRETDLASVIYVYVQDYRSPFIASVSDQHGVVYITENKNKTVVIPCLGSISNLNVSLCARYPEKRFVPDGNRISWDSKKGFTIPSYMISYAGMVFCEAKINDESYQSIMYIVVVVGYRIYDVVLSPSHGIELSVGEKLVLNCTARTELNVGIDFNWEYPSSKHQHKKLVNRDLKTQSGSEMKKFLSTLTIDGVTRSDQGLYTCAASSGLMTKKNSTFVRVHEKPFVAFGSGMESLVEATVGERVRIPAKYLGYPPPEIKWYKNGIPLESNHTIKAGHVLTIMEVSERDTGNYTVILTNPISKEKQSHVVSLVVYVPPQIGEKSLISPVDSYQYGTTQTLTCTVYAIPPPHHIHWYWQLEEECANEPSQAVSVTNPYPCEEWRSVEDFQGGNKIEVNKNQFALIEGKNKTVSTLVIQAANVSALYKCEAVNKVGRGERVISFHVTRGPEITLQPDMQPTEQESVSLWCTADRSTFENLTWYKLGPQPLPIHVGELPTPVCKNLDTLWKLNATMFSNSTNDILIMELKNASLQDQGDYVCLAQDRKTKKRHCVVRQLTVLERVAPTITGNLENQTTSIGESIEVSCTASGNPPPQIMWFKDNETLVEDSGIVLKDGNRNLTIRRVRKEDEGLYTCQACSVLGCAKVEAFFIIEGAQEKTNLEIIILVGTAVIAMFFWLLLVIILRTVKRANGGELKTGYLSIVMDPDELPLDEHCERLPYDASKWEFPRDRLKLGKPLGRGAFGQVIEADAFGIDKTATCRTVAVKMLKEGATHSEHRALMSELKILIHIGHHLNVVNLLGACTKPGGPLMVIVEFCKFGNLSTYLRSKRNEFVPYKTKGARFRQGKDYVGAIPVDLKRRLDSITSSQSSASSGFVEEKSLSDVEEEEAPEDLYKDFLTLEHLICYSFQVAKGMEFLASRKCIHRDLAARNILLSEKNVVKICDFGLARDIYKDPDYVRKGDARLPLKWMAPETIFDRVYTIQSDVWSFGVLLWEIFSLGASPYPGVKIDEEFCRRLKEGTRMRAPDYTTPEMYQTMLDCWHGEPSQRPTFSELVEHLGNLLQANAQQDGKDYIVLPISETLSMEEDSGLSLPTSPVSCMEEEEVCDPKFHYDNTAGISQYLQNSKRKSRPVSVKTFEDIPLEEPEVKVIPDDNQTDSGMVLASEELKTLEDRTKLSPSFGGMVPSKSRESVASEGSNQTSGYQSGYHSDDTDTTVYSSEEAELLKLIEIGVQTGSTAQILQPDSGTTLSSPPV
T1 sequence (O94804 whole entry): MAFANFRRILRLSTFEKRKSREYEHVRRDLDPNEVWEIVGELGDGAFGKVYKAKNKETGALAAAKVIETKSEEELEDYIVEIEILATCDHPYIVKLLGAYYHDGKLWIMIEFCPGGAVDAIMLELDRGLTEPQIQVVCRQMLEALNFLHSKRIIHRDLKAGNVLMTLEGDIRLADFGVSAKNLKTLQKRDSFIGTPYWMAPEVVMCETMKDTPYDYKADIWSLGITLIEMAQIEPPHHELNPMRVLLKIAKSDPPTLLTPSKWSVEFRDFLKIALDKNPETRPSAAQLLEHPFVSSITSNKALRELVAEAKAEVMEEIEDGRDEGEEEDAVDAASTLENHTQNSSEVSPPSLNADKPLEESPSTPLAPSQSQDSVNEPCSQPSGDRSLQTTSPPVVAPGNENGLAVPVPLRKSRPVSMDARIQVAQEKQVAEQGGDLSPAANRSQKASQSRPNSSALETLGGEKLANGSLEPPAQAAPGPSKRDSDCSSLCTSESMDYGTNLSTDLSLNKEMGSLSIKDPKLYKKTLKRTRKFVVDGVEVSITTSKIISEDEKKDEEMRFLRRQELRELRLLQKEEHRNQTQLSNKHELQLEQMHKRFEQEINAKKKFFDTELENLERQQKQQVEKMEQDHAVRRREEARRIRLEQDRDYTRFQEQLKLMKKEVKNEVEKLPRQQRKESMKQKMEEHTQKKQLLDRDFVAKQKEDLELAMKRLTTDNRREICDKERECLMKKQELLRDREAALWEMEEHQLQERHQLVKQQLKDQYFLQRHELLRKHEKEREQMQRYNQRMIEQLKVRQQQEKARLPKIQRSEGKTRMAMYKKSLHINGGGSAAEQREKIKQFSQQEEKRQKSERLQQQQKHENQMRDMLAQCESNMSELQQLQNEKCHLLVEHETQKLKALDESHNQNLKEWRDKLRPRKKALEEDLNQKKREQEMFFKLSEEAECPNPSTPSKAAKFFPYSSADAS

As for `Fc1ccc2ncnc(NCCc3ccc(Cl)cc3)c2c1` [5at, N-[2-(4-Chlorophenyl)Ethyl]-6-Fluoro-4-Quinazolinamine], the remaining activity at 10 µM on LOK(h) (setting [1]) came to 87%; at MuSK(h) (setting [1]), 97%; at KDR(h) (setting [1]), 74%; at DCAMKL3(h) (setting [1]), 107%; on PKG1β(h) (setting [1]), 76%.
As for `COc1ccc2ncnc(Nc3cccc(F)c3)c2c1` [5ay, N-(3-Fluorophenyl)-6-Methoxy-4-Quinazolinamine], the remaining activity at 10 µM on LOK(h) (setting [2]) came to 35%; on MuSK(h) (setting [2]), 70%; at KDR(h) (setting [2]) it was 64%; at DCAMKL3(h) (setting [2]), 108%; at PKG1β(h) (setting [2]) it was 94%.
Consider `Fc1ccc(CCNc2ncnc3ccc(F)cc23)cc1` [5as, 6-Fluoro-N-[2-(4-Fluorophenyl)Ethyl]-4-Quinazolinamine], for which the remaining activity at 10 µM on LOK(h) (setting [3]) worked out at 81%; at MuSK(h) (setting [3]) it was 81%; at KDR(h) (setting [3]) it was 77%; on DCAMKL3(h) (setting [3]), 108%; at PKG1β(h) (setting [3]) it was 84%.
With `Fc1ccc(CNc2ncnc3ccc(F)cc23)cc1` [5aa, 6-Fluoro-N-(4-fluorobenzyl)-4-Quinazolinamine], the remaining activity at 10 µM at LOK(h) (setting [4]) was determined as 91%; on MuSK(h) (setting [4]), 74%; at KDR(h) (setting [4]), 86%; at DCAMKL3(h) (setting [4]), 102%; at PKG1β(h) (setting [4]), 91%.
